Measurements as given in the supplement of paper PMC6965134.
± gives the standard deviation of the averaged measurements. One block for each compound: values may come before it.

Test: TIMS collisional cross section (CCS, N2) of the lipid ion; higher = larger ion cross section
Settings: ionization mode: negative, one isomer drawn
Experimental: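 Lipid extracts of human plasma (NIST SRM 1950), mouse liver or HeLa cells were separated by nanoflow C18 LC (30 min gradient) and analysed by TIMS-PASEF on a timsTOF Pro. Ion mobility was calibrated with the Agilent tuning mix (negative mode ions) and converted to collisional cross sections (Mason–Schamp, N2).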
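Also: lipids from MTBE extraction, five replicate injections per sample, 100 ms TIMS ramp spanning 0.6–1.95 Vs/cm², lipid identity assigned from PASEF MS/MS spectra.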

TIMS collisional cross section (sample type: Human plasma, ion (formula + adduct): [C43H76NO7P-H] 1-): 274 Å²
TIMS collisional cross section (sample type: Mouse Liver, ion (formula + adduct): [C43H76NO7P-H] 1-): 273.4 Å²
Structure (SMILES): CC/C=C\C/C=C\C/C=C\C/C=C\C/C=C\C/C=C\CCC(=O)O[C@H](COCCCCCCCCCCCCCCCC)COP(=O)(O)OCCN [PE O- 16:0@_22:6]

TIMS collisional cross section (sample type: Mouse Liver, ion (formula + adduct): [C38H74NO8P+Cl] 1-): 268.8 Å²
Structure (SMILES): CCCC/C=C\CCCCCCCC(=O)OC[C@H](COP(=O)([O-])OCC[N+](C)(C)C)OC(=O)CCCCCCCCCCCCCCC [PC 14:1_16:0]

TIMS collisional cross section (sample type: Mouse Liver, ion (formula + adduct): [C42H77O10P-H] 1-): 281.4 Å²
Structure (SMILES): CCCCC/C=C\C/C=C\CCCCCCCC(=O)OC[C@H](COP(=O)(O)OC[C@@H](O)CO)OC(=O)CCCCCCC/C=C\CCCCCCCC [PG 18:2_18:1]

TIMS collisional cross section (sample type: Mouse Liver, ion (formula + adduct): [C49H81O13P-H] 1-): 299.8 Å²
Structure (SMILES): CC/C=C\C/C=C\C/C=C\C/C=C\C/C=C\C/C=C\CCC(=O)O[C@H](COC(=O)CCCCCCC/C=C\CCCCCCCC)COP(=O)(O)OC1C(O)C(O)C(O)[C@@H](O)C1O (stereo partly drawn) [PI 18:1_22:6@]

TIMS collisional cross section (sample type: Mouse Liver, ion (formula + adduct): [C42H76NO8P+AcO] 1-): 288.1 Å²
Structure (SMILES): CCCCC/C=C\C/C=C\C/C=C\C/C=C\CCCC(=O)O[C@H](COC(=O)CCCCCCCCCCCCC)COP(=O)([O-])OCC[N+](C)(C)C [PC 14:0_20:4@]

TIMS collisional cross section (sample type: Human plasma, ion (formula + adduct): [C38H78NO7P+AcO] 1-): 287.3 Å²
Structure (SMILES): CCCCCCCCCCCCCCCCCCOC[C@H](COP(=O)(O)OCCN)OC(=O)CCCCCCCCCCCCCC [PE O- 18:0@_15:0]

TIMS collisional cross section (sample type: Mouse Liver, ion (formula + adduct): [C38H72NO8P-H] 1-): 263.2 Å²
Structure (SMILES): CCCCCC/C=C\CCCCCCCC(=O)OC[C@H](COP(=O)(O)OCCN)OC(=O)CCCCCCC/C=C\CCCCCCC [PE 16:1_17:1]

TIMS collisional cross section (sample type: Human plasma, ion (formula + adduct): [C38H74NO8P+HCOO] 1-): 280.9 Å²
Structure (SMILES): CCCCCC/C=C\CCCCCCCC(=O)O[C@H](COC(=O)CCCCCCCCCCCCC)COP(=O)([O-])OCC[N+](C)(C)C [PC 14:0_16:1]

TIMS collisional cross section (sample type: Mouse Liver, ion (formula + adduct): [C37H74NO8P-H] 1-): 263.3 Å²
Structure (SMILES): CCCCCCCCCCCCCCCC(=O)OCC(COP(=O)(O)OCCN)OC(=O)CCCCCCCCCCCCCCC (stereo not drawn) [PE 16:0_16:0]

TIMS collisional cross section (sample type: Mouse Liver, ion (formula + adduct): [C43H72NO8P-H] 1-): 272.7 Å²
Structure (SMILES): CC/C=C\C/C=C\C/C=C\C/C=C\C/C=C\C/C=C\CCC(=O)OC[C@H](COP(=O)(O)OCCN)OC(=O)CCCCCCC/C=C\CCCCCC [PE 22:6_16:1]

TIMS collisional cross section (sample type: Human plasma, ion (formula + adduct): [C45H78NO9P-H] 1-): 287 Å²
Structure (SMILES): CC/C=C\C/C=C\CC(O)/C=C/C=C\C/C=C\C/C=C\CCC(=O)O[C@H](COC(=O)CCCCCCCCCCCCCCCCC)COP(=O)(O)OCCN (stereo partly drawn) [Oxidized PE 18:0_22:6@]

TIMS collisional cross section (sample type: Human plasma, ion (formula + adduct): [C45H81O13P-H] 1-): 298.9 Å²
Structure (SMILES): CCCCC/C=C\C/C=C\C/C=C\CCCCCCC(=O)OC[C@H](COP(=O)(O)OC1[C@H](O)[C@H](O)C(O)[C@H](O)[C@H]1O)OC(=O)CCCCCCCCCCCCCCC (stereo partly drawn) [PI 20:3@_16:0]

TIMS collisional cross section (sample type: Mouse Liver, ion (formula + adduct): [C44H88NO7P-CH3] 1-): 279.7 Å²
Structure (SMILES): CCCCCCCCCC/C=C\CCCCCCCC(=O)O[C@H](COCCCCCCCCCCCCCCCC)COP(=O)([O-])OCC[N+](C)(C)C [PC O- 16:0@_20:1]

TIMS collisional cross section (sample type: Human plasma, ion (formula + adduct): [C43H74NO8P-H] 1-): 275.6 ± 3.2 Å²
Structure (SMILES): CCCCC/C=C\C/C=C\C/C=C\C/C=C\CCCC(=O)OC[C@H](COP(=O)(O)OCCN)OC(=O)CCCCCCC/C=C\C/C=C\CCCCC [PE 20:4_18:2@]

TIMS collisional cross section (sample type: Mouse Liver, ion (formula + adduct): [C39H78NO8P-H] 1-): 269.5 Å²
Structure (SMILES): CCCCCCCCCCCCCCCCCC(=O)OC[C@H](COP(=O)(O)OCCN)OC(=O)CCCCCCCCCCCCCCC [PE 18:0_16:0]

TIMS collisional cross section (sample type: Mouse Liver, ion (formula + adduct): [C42H72NO8P-H] 1-): 269.9 Å²
Structure (SMILES): CC/C=C\C/C=C\C/C=C\C/C=C\C/C=C\CCCC(=O)O[C@H](COC(=O)CCCCCCC/C=C\CCCC)COP(=O)([O-])OCC[N+](C)(C)C [PC 14:1@_20:5]

TIMS collisional cross section (sample type: Mouse Liver, ion (formula + adduct): [C47H74NO8P-H] 1-): 280.6 Å²
Structure (SMILES): CC/C=C\C/C=C\C/C=C\C/C=C\C/C=C\C/C=C\CCC(=O)O[C@H](COC(=O)CCC/C=C\C/C=C\C/C=C\C/C=C\CCCCC)COP(=O)(O)OCCN [PE 20:4_22:6]

TIMS collisional cross section (sample type: Human plasma, ion (formula + adduct): [C48H84NO8P+HCOO] 1-): 303.4 Å²
Structure (SMILES): CC/C=C\C/C=C\C/C=C\C/C=C\C/C=C\C/C=C\CCC(=O)O[C@H](COC(=O)CCCCCCCCCCCCCCCCC)COP(=O)([O-])OCC[N+](C)(C)C [PC 18:0@_22:6]

TIMS collisional cross section (sample type: Human plasma, ion (formula + adduct): [C46H85O13P-CH3] 1-): 293.6 Å²
Structure (SMILES): CCCCCCCC/C=C\CCCCCCCC(=O)OCC(COP(=O)(O)OC1C(O)C(O)C(O)C(O)C1O)OC(=O)CCCCCCC/C=C\CCCCCCCCC (stereo not drawn) [PI 18:1_19:1]

TIMS collisional cross section (sample type: Human plasma, ion (formula + adduct): [C23H39O7P-H] 1-): 207.1 Å²
Structure (SMILES): CCCCC/C=C\C/C=C\C/C=C\C/C=C\CCCC(=O)OC[C@@H](O)COP(=O)(O)O [LPA 20:4_0:0]

TIMS collisional cross section (sample type: Human plasma, ion (formula + adduct): [C41H78NO8P+HCOO] 1-): 288.2 Å²
TIMS collisional cross section (sample type: Mouse Liver, ion (formula + adduct): [C41H78NO8P+HCOO] 1-): 287.1 Å²
Structure (SMILES): CCCCC/C=C\C/C=C\CCCCCCCC(=O)O[C@H](COC(=O)CCCCCCCCCCCCCC)COP(=O)([O-])OCC[N+](C)(C)C [PC 15:0_18:2]

TIMS collisional cross section (sample type: Mouse Liver, ion (formula + adduct): [C44H74NO10P-H] 1-): 286.4 Å²
Structure (SMILES): CCCCC/C=C\C/C=C\C/C=C\C/C=C\CCCC(=O)OC[C@H](COP(=O)(O)OC[C@H](N)C(=O)O)OC(=O)CCCCCCC/C=C\C/C=C\CCCCC [PS 20:4_18:2@]

TIMS collisional cross section (sample type: Human plasma, ion (formula + adduct): [C41H82NO8P+HCOO] 1-): 291.1 Å²
Structure (SMILES): CCCCCCCCCCCCCCCCCC(=O)O[C@H](COC(=O)CCCCCCCCCCCCCC)COP(=O)([O-])OCC[N+](C)(C)C [PC 15:0_18:0@]

TIMS collisional cross section (sample type: Human plasma, ion (formula + adduct): [C40H80NO7P+AcO] 1-): 292.4 Å²
Structure (SMILES): CCCCCCC/C=C\CCCCCCCC(=O)O[C@H](COCCCCCCCCCCCCCCCCCC)COP(=O)(O)OCCN [PE O- 18:0@_17:1]

TIMS collisional cross section (sample type: Human plasma, ion (formula + adduct): [C42H78NO8P+HCOO] 1-): 289.9 Å²
TIMS collisional cross section (sample type: Mouse Liver, ion (formula + adduct): [C42H78NO8P+HCOO] 1-): 289.15 ± 0.21 Å²
Structure (SMILES): CCCCC/C=C\C/C=C\C/C=C\CCCCC(=O)O[C@H](COC(=O)CCCCCCCCCCCCCCC)COP(=O)([O-])OCC[N+](C)(C)C [PC 16:0_18:3]

TIMS collisional cross section (sample type: Human plasma, ion (formula + adduct): [C44H80NO8P+HCOO] 1-): 293.4 ± 0.35 Å²
TIMS collisional cross section (sample type: Mouse Liver, ion (formula + adduct): [C44H80NO8P+HCOO] 1-): 292.7 Å²
Structure (SMILES): CCCCCCCCCCCCC/C=C/C=C/C(=O)OC[C@H](COP(=O)([O-])OCC[N+](C)(C)C)OC(=O)/C=C/C=C/CCCCCCCCCCCCC [PC 18:2_18:2]

TIMS collisional cross section (sample type: Human plasma, ion (formula + adduct): [C41H74NO7P+AcO] 1-): 280.1 Å²
Structure (SMILES): CC/C=C\C/C=C\C/C=C\C/C=C\C/C=C\CCCC(=O)O[C@H](COCCCCCCCCCCCCCCCC)COP(=O)(O)OCCN [PE O- 16:0@_20:5]

TIMS collisional cross section (sample type: Mouse Liver, ion (formula + adduct): [C50H79O10P-H] 1-): 297.7 Å²
Structure (SMILES): CC/C=C\C/C=C\C/C=C\C/C=C\C/C=C\C/C=C\CCC(=O)OC[C@H](COP(=O)(O)OC[C@@H](O)CO)OC(=O)CCCCC/C=C\C/C=C\C/C=C\C/C=C\CCCCC [PG 22:6@_22:4]

TIMS collisional cross section (sample type: Mouse Liver, ion (formula + adduct): [C40H75O10P-H] 1-): 273.4 Å²
Structure (SMILES): CCCCC/C=C\C/C=C\CCCCCCCC(=O)O[C@H](COC(=O)CCCCCCCCCCCCCCC)COP(=O)(O)OC[C@@H](O)CO [PG 16:0_18:2]

TIMS collisional cross section (sample type: Human plasma, ion (formula + adduct): [C27H51O12P-H] 1-): 238.3 Å²
Structure (SMILES): CCCCCCCC/C=C\CCCCCCCC(=O)OC[C@@H](O)COP(=O)(O)OC1[C@H](O)[C@H](O)C(O)[C@H](O)[C@H]1O (stereo partly drawn) [LPI 18:1_0:0]

TIMS collisional cross section (sample type: Mouse Liver, ion (formula + adduct): [C45H79O13P-H] 1-): 290.2 Å²
Structure (SMILES): CCCCC/C=C\C/C=C\CCCCCCCC(=O)OC[C@H](COP(=O)(O)OC1C(O)C(O)C(O)[C@@H](O)C1O)OC(=O)CCCCCCC/C=C\C/C=C\CCCCC (stereo partly drawn) [PI 18:2_18:2]

TIMS collisional cross section (sample type: Mouse Liver, ion (formula + adduct): [C44H73O10P-H] 1-): 283 Å²
Structure (SMILES): CC/C=C\C/C=C\C/C=C\C/C=C\C/C=C\C/C=C\CCC(=O)OC[C@H](COP(=O)(O)OC[C@@H](O)CO)OC(=O)CCCCCCC/C=C\CCCCCC [PG 22:6@_16:1]

TIMS collisional cross section (sample type: Mouse Liver, ion (formula + adduct): [C43H74NO8P-H] 1-): 272.7 Å²
Structure (SMILES): CCCCC/C=C\C/C=C\C/C=C\C/C=C\CCCC(=O)OC[C@H](COP(=O)(O)OCCN)OC(=O)CCCCCCC/C=C\C/C=C\CCCCC [PE 20:4_18:2]

TIMS collisional cross section (sample type: Mouse Liver, ion (formula + adduct): [C44H76NO10P-H] 1-): 284.6 Å²
Structure (SMILES): CCCCC/C=C\C/C=C\C/C=C\C/C=C\CCCC(=O)OC[C@H](COP(=O)(O)OC[C@H](N)C(=O)O)OC(=O)CCCCCCC/C=C\CCCCCCCC [PS 20:4_18:1]
